pIC50: −log10 of the molar value.
Molecular target: T1, hVR1 (Homo sapiens, UniProt Q8NER1)
T1 construct: expressed in transfected cells; host or cells: HEK293
Test: Human VR1 (hVR1) Functional Assay (FLIPR intracellular calcium, capsaicin challenge)
Type: cell-based
Conditions: capsaicin 0.030 μM, HEK293 cells expressing hVR1; for inhibition at 1 µM: test concentration 1 μM

T1 sequence (Q8NER1 whole entry): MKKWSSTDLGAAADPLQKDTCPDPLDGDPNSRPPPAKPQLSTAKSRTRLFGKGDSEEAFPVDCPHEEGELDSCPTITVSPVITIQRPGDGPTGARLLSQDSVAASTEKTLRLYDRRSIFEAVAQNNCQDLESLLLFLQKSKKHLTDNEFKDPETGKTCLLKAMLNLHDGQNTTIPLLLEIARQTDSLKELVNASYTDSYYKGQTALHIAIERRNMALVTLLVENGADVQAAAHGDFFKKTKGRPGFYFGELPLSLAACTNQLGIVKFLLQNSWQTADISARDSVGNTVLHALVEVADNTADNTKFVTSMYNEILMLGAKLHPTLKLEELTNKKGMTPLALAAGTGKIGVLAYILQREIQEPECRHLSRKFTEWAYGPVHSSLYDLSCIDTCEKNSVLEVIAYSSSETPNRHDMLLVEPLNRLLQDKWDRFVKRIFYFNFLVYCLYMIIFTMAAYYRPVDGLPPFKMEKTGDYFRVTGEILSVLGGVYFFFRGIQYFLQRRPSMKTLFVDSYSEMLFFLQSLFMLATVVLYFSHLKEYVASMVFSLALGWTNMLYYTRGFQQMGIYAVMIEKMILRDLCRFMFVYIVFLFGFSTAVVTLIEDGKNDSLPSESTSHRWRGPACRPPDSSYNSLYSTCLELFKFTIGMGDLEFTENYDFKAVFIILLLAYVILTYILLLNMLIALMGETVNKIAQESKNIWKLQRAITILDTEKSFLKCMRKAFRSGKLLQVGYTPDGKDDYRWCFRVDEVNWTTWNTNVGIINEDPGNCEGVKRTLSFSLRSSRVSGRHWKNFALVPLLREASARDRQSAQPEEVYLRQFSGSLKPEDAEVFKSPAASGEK

SMILES	pIC50	inhibition at 1 µM
CS(=O)(=O)Nc1ccccc1-c1ccc2[nH]c(/C=C/c3ccc4ccccc4c3)nc2c1 [Cpd 415, (E)-N-{2-[2-(2-naphthalen-2-yl-vinyl)-1H-benzimidazol-5-yl]-phenyl}-methanesulfonamide]	6.82	95%
CC(=O)Nc1ccccc1-c1ccc2[nH]c(/C=C/c3ccc(SC(F)(F)F)cc3)nc2c1 [Cpd 37, (E)-N-(2-{2-[2-(4-trifluoromethylsulfanyl-phenyl)-vinyl]-1H-benzimidazol-5-yl}-phenyl)-acetamide]	–	18%
NS(=O)(=O)c1ccccc1-c1ccc2[nH]c(CCc3cccc(F)c3F)nc2c1 [Cpd 394, 2-{2-[2-(2,3-difluoro-phenyl)-ethyl]-1H-benzimidazol-5-yl}-benzenesulfonamide]	8.22	98%
NS(=O)(=O)c1ccccc1-c1ccc2[nH]c(C#Cc3ccc(C(F)(F)F)cc3)nc2c1 [Cpd 250, 2-[2-(4-trifluoromethyl-phenylethynyl)-1H-benzimidazol-5-yl]-benzenesulfonamide]	7.72	98%
NS(=O)(=O)c1ccccc1-c1ccc2[nH]c(CCc3ccccc3)nc2c1 [Cpd 397, 2-(2-phenethyl-1H-benzimidazol-5-yl)-benzenesulfonamide]	7.64	99%
Oc1cccc(-c2cc3nc(/C=C/c4ccc(C(F)(F)F)cc4)[nH]c3cc2F)c1 [Cpd 60, (E)-3-{6-fluoro-2-[2-(4-trifluoromethyl-phenyl)-vinyl]-1H-benzimidazol-5-yl}-phenol]	–	7%
CC(C)(O)c1ccccc1-c1ccc2[nH]c(C#Cc3ccc(C(F)(F)F)cc3)nc2c1 [Cpd 492, 2-{2-[2-(4-trifluoromethyl-phenylethynyl)-1H-benzimidazol-5-yl]-phenyl}-propan-2-ol]	8.30	99%
NC(=O)c1ccccc1-c1ccc2[nH]c(C3CC3c3ccc(C(F)(F)F)cc3)nc2c1 (stereo not shown) [Cpd 498, 2-{2-[2-(4-trifluoromethyl-phenyl)-cyclopropyl]-1H-benzimidazol-5-yl}-benzamide]	7.72	100%
CNS(=O)(=O)c1ccccc1-c1ccc2[nH]c(/C=C/c3c(F)cccc3F)nc2c1 [Cpd 327, (E)-2-{2-[2-(2,6-difluoro-phenyl)-vinyl]-1H-benzimidazol-5-yl}-N-methyl-benzenesulfonamide]	6.46	77%

Now from value to compound:

pIC50	inhibition at 1 µM	SMILES
7.92	100%	CC(O)c1ccccc1-c1ccc2[nH]c(/C=C/c3ccc(C(C)(C)C)cc3)nc2c1 (stereo not shown) [Cpd 2, (E)-1-(2-{2-[2-(4-tert-butyl-phenyl)-vinyl]-1H-benzimidazol-5-yl}-phenyl)-ethanol]
8.52	97%	CN(C)S(=O)(=O)c1ccccc1-c1ccc2[nH]c(/C=C/c3ccc(C(F)(F)F)cc3)nc2c1 [Cpd 398, (E)-N,N-dimethyl-2-{2-[2-(4-trifluoromethyl-phenyl)-vinyl]-1H-benzimidazol-5-yl}-benzenesulfonamide]
7.85	100%	CC(C)(C)c1ccc(/C=C/c2nc3cc(-c4ccccc4C(C)(C)O)ccc3[nH]2)cc1 [Cpd 463, (E)-2-(2-{2-[2-(4-tert-butyl-phenyl)-vinyl]-1H-benzimidazol-5-yl}-phenyl)-propan-2-ol]
7.15	98%	CCOC(=O)c1ccccc1-c1ccc2[nH]c(/C=C/c3ccc(C(F)(F)F)cc3)nc2c1 [Cpd 466, (E)-2-{2-[2-(4-trifluoromethyl-phenyl)-vinyl]-1H-benzimidazol-5-yl}-benzoic acid ethyl ester]
–	16%	CC(C)(C)c1ccc(/C=C/c2nc3cc(-c4cccc(O)c4)c(C(F)(F)F)cc3[nH]2)cc1 [Cpd 49, (E)-3-{2-[2-(4-tert-butyl-phenyl)-vinyl]-6-trifluoromethyl-1H-benzimidazol-5-yl}-phenol]

Source: patent US7951829B2, “Benzimidazole modulators of VR1” (Janssen Pharmaceutica NV, priority 2006, dated 2011)
